Reference: ChEMBL document CHEMBL6134799, “Auto-RapTAC: A Versatile and Sustainable Platform for the Automated Rapid Synthesis and Evaluation of PROTAC” (J Med Chem, 2025)
Each block holds one compound with its values, some of them ahead of it. Activity calls are given as the source filed them. The calls are words filed in the database; no cut-off is given here.

How the values were obtained:
Type in all cases: cell-based
[1] = target: T1, von Hippel-Lindau disease tumor suppressor/Cyclin-dependent kinase 12 (Homo sapiens, UniProt P40337+Q9NYV4); test: Auto-RapTAC activity at VHL/CDK12 in human HeLa cells assessed as CDK12 degradation at 500 to 1000 nM incubated for 24 hrs by cytoblot analysis relative to control; conditions: dose 500-1000 nM
Target sequence in this assay (P40337 whole entry, looked up): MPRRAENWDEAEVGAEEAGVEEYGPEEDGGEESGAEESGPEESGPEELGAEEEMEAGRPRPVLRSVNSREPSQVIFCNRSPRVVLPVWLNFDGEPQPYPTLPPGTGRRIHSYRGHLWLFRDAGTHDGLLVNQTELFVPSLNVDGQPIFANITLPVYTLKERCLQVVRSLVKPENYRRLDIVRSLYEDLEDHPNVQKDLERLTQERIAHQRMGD
Target sequence in this assay (Q9NYV4 whole entry, looked up): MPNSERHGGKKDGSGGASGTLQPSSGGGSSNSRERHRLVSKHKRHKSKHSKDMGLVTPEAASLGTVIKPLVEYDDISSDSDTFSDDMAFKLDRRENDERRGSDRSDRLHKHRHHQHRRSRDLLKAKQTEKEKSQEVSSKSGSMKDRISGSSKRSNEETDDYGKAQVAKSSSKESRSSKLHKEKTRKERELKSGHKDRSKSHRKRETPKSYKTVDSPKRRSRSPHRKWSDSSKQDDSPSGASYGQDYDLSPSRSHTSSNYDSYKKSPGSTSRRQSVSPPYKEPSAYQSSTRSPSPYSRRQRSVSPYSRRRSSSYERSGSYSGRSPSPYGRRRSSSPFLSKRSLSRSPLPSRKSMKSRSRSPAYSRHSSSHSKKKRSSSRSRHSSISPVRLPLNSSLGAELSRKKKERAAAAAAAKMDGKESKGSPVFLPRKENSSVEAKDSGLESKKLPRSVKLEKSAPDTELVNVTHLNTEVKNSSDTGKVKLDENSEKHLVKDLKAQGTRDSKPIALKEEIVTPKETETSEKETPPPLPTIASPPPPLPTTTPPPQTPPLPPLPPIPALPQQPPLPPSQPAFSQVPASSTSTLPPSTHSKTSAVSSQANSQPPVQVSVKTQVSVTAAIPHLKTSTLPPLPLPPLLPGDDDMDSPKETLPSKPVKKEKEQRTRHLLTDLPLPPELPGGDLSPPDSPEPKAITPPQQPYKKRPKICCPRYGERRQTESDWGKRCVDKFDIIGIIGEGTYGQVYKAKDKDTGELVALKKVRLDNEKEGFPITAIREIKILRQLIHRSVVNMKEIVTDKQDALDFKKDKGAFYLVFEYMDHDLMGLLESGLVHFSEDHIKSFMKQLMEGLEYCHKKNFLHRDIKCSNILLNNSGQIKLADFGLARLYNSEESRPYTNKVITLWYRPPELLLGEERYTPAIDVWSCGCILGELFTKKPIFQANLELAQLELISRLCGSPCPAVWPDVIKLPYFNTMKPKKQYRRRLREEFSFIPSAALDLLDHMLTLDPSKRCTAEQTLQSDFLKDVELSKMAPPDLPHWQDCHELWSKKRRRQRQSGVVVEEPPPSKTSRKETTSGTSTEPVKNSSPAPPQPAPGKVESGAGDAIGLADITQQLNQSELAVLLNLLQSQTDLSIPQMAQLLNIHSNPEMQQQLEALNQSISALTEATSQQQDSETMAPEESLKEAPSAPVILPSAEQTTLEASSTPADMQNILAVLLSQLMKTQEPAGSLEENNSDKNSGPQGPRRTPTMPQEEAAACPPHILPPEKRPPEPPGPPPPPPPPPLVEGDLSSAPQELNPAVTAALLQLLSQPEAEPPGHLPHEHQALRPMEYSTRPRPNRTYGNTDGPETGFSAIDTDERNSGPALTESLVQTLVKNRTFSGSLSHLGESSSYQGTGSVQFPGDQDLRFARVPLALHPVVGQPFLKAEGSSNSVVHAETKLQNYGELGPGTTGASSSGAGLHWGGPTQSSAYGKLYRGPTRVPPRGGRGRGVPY

[2] = target: T1, von Hippel-Lindau disease tumor suppressor/Cyclin-dependent kinase 12; test: Auto-RapTAC activity at VHL/CDK12 in human HeLa cells assessed as CDK12 degradation incubated for 24 hrs by cytoblot analysis
[3] = test system: HeLa; test: Auto-RapTAC activity at MDM2/CDK12 in human HeLa cells assessed as CDK12 degradation at 500 to 1000 nM incubated for 24 hrs by cytoblot analysis relative to control; conditions: dose 500-1000 nM
[4] = (§1) Auto-RapTAC activity at MDM2/CDK12 in human HeLa cells assessed as CDK12 degradation incubated for 24 hrs by cytoblot analysis
[5] = test system: HeLa; test: as §1; conditions: dose 500-1000 nM
[6] = target: Protein cereblon/Cyclin-dependent kinase 2 (Homo sapiens, UniProt P24941+Q96SW2); test: Auto-RapTAC activity at CRBN/CDK2 in human NCI-H1299 cells assessed as CDK2 degradation incubated for 24 hrs by Western blot analysis
[7] = test system: HEK293T; test: Auto-RapTAC activity at MDM2/BCL6 in HEK293T cells expressing GFP-BCL6 (unknown origin) assessed as BCL6 degradation at 500 to 1000 nM incubated for 24 hrs by fluorescence based analysis; conditions: Homo sapiens, dose 500-1000 nM
[8] = target: von Hippel-Lindau disease tumor suppressor/B-cell lymphoma 6 protein (Homo sapiens, UniProt P40337+P41182); test: Auto-RapTAC activity at VHL/BCL6 in HEK293T cells expressing GFP-BCL6 (unknown origin) assessed as BCL6 degradation incubated for 24 hrs by fluorescence based analysis
[9] = target: T2, Protein cereblon/B-cell lymphoma 6 protein (Homo sapiens, UniProt Q96SW2+P41182); test: Auto-RapTAC activity at CRBN/BCL6 in HEK293T cells expressing GFP-BCL6 (unknown origin) assessed as BCL6 degradation at 500 to 1000 nM incubated for 24 hrs by fluorescence based analysis; conditions: dose 500-1000 nM
[10] = target: T2, Protein cereblon/B-cell lymphoma 6 protein; test: Auto-RapTAC activity at CRBN/BCL6 in HEK293T cells expressing GFP-BCL6 (unknown origin) assessed as BCL6 degradation incubated for 24 hrs by fluorescence based analysis

T2 sequence (Q96SW2 whole entry, looked up, other chains not shown): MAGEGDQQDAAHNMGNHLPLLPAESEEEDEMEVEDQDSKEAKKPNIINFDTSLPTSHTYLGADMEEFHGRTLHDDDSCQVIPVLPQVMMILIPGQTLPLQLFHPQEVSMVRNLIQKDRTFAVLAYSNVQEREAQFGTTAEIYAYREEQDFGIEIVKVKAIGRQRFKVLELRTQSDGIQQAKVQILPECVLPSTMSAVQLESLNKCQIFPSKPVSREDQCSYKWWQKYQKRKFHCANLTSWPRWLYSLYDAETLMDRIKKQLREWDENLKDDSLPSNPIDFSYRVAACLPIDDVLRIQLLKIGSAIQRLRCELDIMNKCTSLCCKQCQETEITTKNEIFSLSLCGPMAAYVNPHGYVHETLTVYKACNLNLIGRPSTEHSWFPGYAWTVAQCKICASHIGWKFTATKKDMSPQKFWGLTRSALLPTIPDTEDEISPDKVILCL
von Hippel-Lindau disease tumor suppressor/B-cell lymphoma 6 protein, sequence (P40337 whole entry, looked up, other chains not shown): as the sequence (P40337 whole entry, looked up) above

- Activity [1]: > 60%
- DC50 [2]: 2.7 nM
SMILES: Cc1ncsc1-c1ccc([C@H](C)NC(=O)[C@@H]2C[C@@H](O)CN2C(=O)[C@H](NC(=O)COCCCCn2cc(CCCOc3cc4[nH]c(CNc5nc(N6CCOCC6)nc6c5ncn6C(C)C)nc4cc3F)nn2)C(C)(C)C)cc1
- Activity ([2]; dose 500-1000 nM): Dose-dependent-effect; Hook Effect Was Not Observed

- DC50 [4]: 2.4 nM
SMILES: CCOC(=O)c1[nH]c2cc(Cl)ccc2c1C(C(=O)NC(C)(C)C)N(Cc1cc(F)c(F)c(F)c1)C(=O)CCCCCCn1cc(CCCOc2cc3[nH]c(CNc4nc(N5CCOCC5)nc5c4ncn5C(C)C)nc3cc2F)nn1 (centres undefined)
- Activity [3]: > 60%
- Activity [5]: Dose-dependent-effect; Hook Effect Was Not Observed

SMILES: CCOC(=O)c1[nH]c2cc(Cl)ccc2c1C(C(=O)NC(C)(C)C)N(Cc1cc(F)c(F)c(F)c1)C(=O)CCCCCn1cc(CCCOc2cc3[nH]c(CNc4nc(N5CCOCC5)nc5c4ncn5C(C)C)nc3cc2F)nn1 (centres undefined)
- Activity [3]: > 60%

- Activity [1]: > 60%
SMILES: Cc1ncsc1-c1ccc([C@H](C)NC(=O)[C@@H]2C[C@@H](O)CN2C(=O)[C@H](NC(=O)CCCCCCCCCCn2cc(CCCOc3cc4[nH]c(CNc5nc(N6CCOCC6)nc6c5ncn6C(C)C)nc4cc3F)nn2)C(C)(C)C)cc1

- DC50 [6]: 362 nM
SMILES: Cc1ncsc1-c1ccc([C@H](C)NC(=O)[C@@H]2C[C@@H](O)CN2C(=O)[C@H](NC(=O)CCCCCCCCCCn2cc(CCC(=O)N3CCC(NC(=O)c4n[nH]cc4NC(=O)c4c(F)cccc4Cl)CC3)nn2)C(C)(C)C)cc1

- DC50 [6]: 454 nM
SMILES: Cc1ncsc1-c1ccc([C@H](C)NC(=O)[C@@H]2C[C@@H](O)CN2C(=O)[C@H](NC(=O)CCCCCCCCCCn2cc(CCC(=O)N3CCC(NC(=O)c4n[nH]cc4NC(=O)c4c(Cl)cccc4Cl)CC3)nn2)C(C)(C)C)cc1

- DC50 [8]: 3.1 nM
SMILES: CNC(=O)COc1cc2cc(Nc3nc(N4CCC(c5cn(CCCCCCCCCCC(=O)N[C@@H](C(=O)N6C[C@H](O)C[C@H]6C(=O)N[C@@H](C)c6ccc(-c7scnc7C)cc6)C(C)(C)C)nn5)CC4)ncc3Cl)ccc2n(C)c1=O
- Activity [7]: Active
- Activity ([8]; dose 500-1000 nM): Dose-dependent-effect; Hook Effect Was Not Observed

- Activity [9]: Active
SMILES: CNC(=O)COc1cc2cc(Nc3nc(N4CCC(c5cn(CCCCCCCCOc6ccc7c(c6)C(=O)N(C6CCC(=O)NC6=O)C7=O)nn5)CC4)ncc3Cl)ccc2n(C)c1=O (centres undefined)

- Activity [9]: Active
- DC50 [10]: 7 nM
SMILES: CNC(=O)COc1cc2cc(Nc3nc(N4CCC(c5cn(CCCCCCCOc6ccc7c(c6)C(=O)N(C6CCC(=O)NC6=O)C7=O)nn5)CC4)ncc3Cl)ccc2n(C)c1=O (centres undefined)
- Activity ([10]; dose 500-1000 nM): Dose-dependent-effect; Hook Effect Was Not Observed

- Activity [9]: Active
SMILES: CNC(=O)COc1cc2cc(Nc3nc(N4CCC(c5cn(CCCCCCCCCOc6ccc7c(c6)C(=O)N(C6CCC(=O)NC6=O)C7=O)nn5)CC4)ncc3Cl)ccc2n(C)c1=O (centres undefined)

- Activity [9]: Active
SMILES: CNC(=O)COc1cc2cc(Nc3nc(N4CCC(c5cn(CCCCCCCCCCOc6ccc7c(c6)C(=O)N(C6CCC(=O)NC6=O)C7=O)nn5)CC4)ncc3Cl)ccc2n(C)c1=O (centres undefined)
